Legend:
Assay type in all cases: in vivo, human
[1] = tested on: Yap1 mRNA; experiment: Yap1 mRNA levels in SNU449 xenograft tumors, alone and in combination with sorafenib (second Example 30); conditions: SNU449 xenograft mice, oligonucleotide 50 mg/kg, sorafenib 30 mg/kg orally, tumors collected day 119 post implantation, relative to PBS
Protocol: Modified oligonucleotides described in the studies above were tested in a hepatocellular carcinoma SNU449 xenograft tumor model. In addition to testing the modified oligonucleotide by itself, combination therapy with sorafenib was also tested. A control oligonucleotide 792169, described herein above, was also tested.
(§1) Five million SNU449 cells in 30% matrigel were implanted subcutaneously into the fatpads of female NOD.Cg-Prkdcscid II2rgtmlWjl/SzJ mice (from Jackson Laboratory) at 4-6 weeks of age. 43 days post implantation (when tumors had reached approximately 100 mm^3 in size), groups of eight mice each were administered with 50 mg/kg modified oligonucleotide daily for 10 days (loading dose), following which they were administered with 50 mg/kg modified oligonucleotide four times a week for one week, following which they were dosed with 50 mg/kg modified oligonucleotide thrice weekly until the end of the study. […] Animals were sacrificed, and tumors were collected on day 119 post implantation.
Yap1 mRNA knockdown in tumors was measured by RT-qPCR as previously described using the Human Yap1 primer-probe set RTS4814. Yap1 mRNA levels were normalized to actin-beta content, as measured by primer probe set RTS5002. Results are presented in the tables below as percent control of the amount of Yap1 mRNA relative to PBS treated animals (% control).

[2] = tested on: SNU449 xenograft tumor; experiment: Tumor volume in SNU449 xenograft tumor model, alone and in combination with sorafenib (second Example 30); conditions: SNU449 xenograft, oligonucleotide 50 mg/kg, sorafenib 30 mg/kg orally
Protocol: Modified oligonucleotides described in the studies above were tested in a hepatocellular carcinoma SNU449 xenograft tumor model. […] A control oligonucleotide 792169, described herein above, was also tested.
as §1
Tumor volumes were also measured at the indicated days in the table below.

[3] = tested on: ERK1/2; experiment: Measurement of ERK activation (pERK/ERK) in SNU449 xenograft model with sorafenib (second Example 30); conditions: SNU449 xenograft tumors, pERK/ERK relative to PBS control, oligonucleotide 50 mg/kg, sorafenib 30 mg/kg orally
Protocol: Five million SNU449 cells in 30% matrigel were implanted subcutaneously into the fatpads of female NOD.Cg-Prkdcscid II2rgtmlWjl/SzJ mice (from Jackson Laboratory) at 4-6 weeks of age. 43 days post implantation (when tumors had reached approximately 100 mm^3 in size), groups of eight mice each were administered with 50 mg/kg modified oligonucleotide daily for 10 days (loading dose), following which they were administered with 50 mg/kg modified oligonucleotide four times a week for one week, following which they were dosed with 50 mg/kg modified oligonucleotide thrice weekly until the end of the study.
Protein analysis was carried out using standard procedures. […] ERK protein levels were compared to internal control GAPDH. […] The secondary antibody used was donkey anti-rabbit NA934, GE Healthcare. pERK/ERK levels were calculated relative to PBS control to determine % activation of ERK1/2.

CNC(=O)c1cc(Oc2ccc(NC(=O)Nc3ccc(Cl)c(C(F)(F)F)c3)cc2)ccn1 [sorafenib]
Yap1 mRNA levels in tumors [1]: 103 % control | Average Tumor Volume ([2]; day 43 post tumor implantation): 112 mm^3 | Average Tumor Volume ([2]; day 46 post tumor implantation): 145 mm^3 | Average Tumor Volume ([2]; day 50 post tumor implantation): 159 mm^3 | Average Tumor Volume ([2]; day 53 post tumor implantation): 173 mm^3 | Average Tumor Volume ([2]; day 57 post tumor implantation): 200 mm^3 | Average Tumor Volume ([2]; day 67 post tumor implantation): 277 mm^3 | Average Tumor Volume ([2]; day 71 post tumor implantation): 249 mm^3 | Average Tumor Volume ([2]; day 75 post tumor implantation): 283 mm^3 | Average Tumor Volume ([2]; day 78 post tumor implantation): 322 mm^3 | Average Tumor Volume ([2]; day 81 post tumor implantation): 391 mm^3 | Average Tumor Volume ([2]; day 85 post tumor implantation): 416 mm^3 | Average Tumor Volume ([2]; day 88 post tumor implantation): 451 mm^3 | Average Tumor Volume ([2]; day 92 post tumor implantation): 508 mm^3 | Average Tumor Volume ([2]; day 94 post tumor implantation): 581 mm^3 | Average Tumor Volume ([2]; day 98 post tumor implantation): 625 mm^3 | Average Tumor Volume ([2]; day 101 post tumor implantation): 685 mm^3 | Average Tumor Volume ([2]; day 105 post tumor implantation): 671 mm^3 | Average Tumor Volume ([2]; day 108 post tumor implantation): 663 mm^3 | Average Tumor Volume ([2]; day 119 post tumor implantation): 747 mm^3 | % activation of ERK1/2 [3]: 142%
